{"source": "patent US12291654B2", "about": "“Fluorescent polymeric coating film for medical devices” (UNIVERSITE DE STRASBOURG, priority 2018, dated 2025)", "key": {"[1]": {"assay": "Fluorescence of coating films made from different hydrophobic polymers (PMMA, PLGA, PLC)", "assay_type": "physicochemical", "conditions": "PLGA or PLC, FIG. 10A, 10B", "procedure": "The coating films based on ICG are prepared as control.\nCoating films made from different polymers were also tested."}, "[2]": {"assay": "NIR fluorescence of coated stainless steel wires (fluorescent image system)", "assay_type": "physicochemical", "conditions": "PMMA film, dye 1 wt %; coated 1, 2, 3 or 5 times; FIG. 1", "procedure": "Polymethylmethacrylate is dissolved at 30 mg/ml in acetonitrile.\nAt this step the fiducial is ready to use."}}}
{"smiles": "CCCCCCCCCCCCCCCCCCN1/C(=C/C=C2\\CCCC(/C=C/C3=[N+](CCCCCCCCCCCCCCCCCC)c4ccc5ccccc5c4C3(C)C)=C2Oc2c(-c3ccccc3)cccc2-c2ccccc2)C(C)(C)c2c1ccc1ccccc21.[I-]", "note": "[HA-06-I]", "values": [{"measurement": "brightness of coating films, different polymers", "setting": "[1]", "result": "better brightness than a coating film based on ICG"}]}
{"smiles": "CCCCCCCCCCCCCCCCCCN1/C(=C/C=C/C=C/C=C/C2=[N+](CCCCCCCCCCCCCCCCCC)c3ccc4ccccc4c3C2(C)C)C(C)(C)c2c1ccc1ccccc21", "note": "[Cy7.5-C18-TPB, Dioctadecylcyanine 7.5 tetraphenylborate]", "values": [{"measurement": "NIR fluorescence of coating film on stainless steel wire", "setting": "[2]", "result": "visible after the first coating and increases by multiple coating"}, {"measurement": "brightness of coating films, different polymers", "setting": "[1]", "result": "better brightness than a coating film based on ICG"}]}
